Assay results: patent US20110172297A1, “Oxopiperdinyl And Pyranyl Sulfonamides and Pharmaceutical Compositions Thereof” (Pfizer Inc, priority 2008, published 2011)

Tested on: AMPA receptors
Test: AMPA ES cell FLIPR screen (AMPA Potentiator Assay)
Assay type: cell-based
Conditions: murine ES cell-derived neurons, FLIPR Fluo-4 calcium signal, 32 uM AMPA challenge; values marked * are the geometric mean of 2-9 EC50 determinations
Method: The murine ES cell line used was E14-Sx1-16C, which has a targeted mutation in the Sox1 gene, a neuroectodermal marker, that offers G418 resistance when the Sox1 gene is expressed (Stem Cell Sciences). ES cells were maintained undifferentiated as previously described (Roach). […] ES cells were plated on gelatin-coated dishes (BD Biosciences), the media was changed daily and the cells were dissociated with 0.05% Trypsin EDTA (Invitrogen) every other day.
Embryoid Body Formation: Prior to embryoid body (EB) formation the ES cells were weaned from FBS onto Knockout Serum Replacement (KSR) (Invitrogen). To form EBs, ES cells were dissociated into a single cell suspension, then 3×10^6 cells were plated in bacteriology dishes (Nunc 4014) and grown as a suspension culture in NeuroEB-I medium that consisted of Knockout™ D-MEM (Invitrogen), supplemented with 10% KSR (Invitrogen), 0.2 mM L-Glutamine (Invitrogen), 0.1 mM MEM non-essential amino acids (Invitrogen), 30 μg/ml Gentamicin (Invitrogen), 1000 u/ml ESGRO (Chemicon), 0.1 mM 2-Mercaptoethanl (Sigma) and 150 ng/ml Transferrin (Invitrogen). The plates were put on a Stovall Belly Button shaker in an atmospheric oxygen incubator. The media was changed on day 2 of EB formation with NeuroEB-I and on day 4 with NeuroEB-II (NeuroEB-I plus 1 μg/ml mNoggin [R&D Systems]).
Neuronal Precursor Selection and Expansion: On day 5 of EB formation, EBs were dissociated with 0.05% Trypsin EDTA, and 4×10^6cells/100 mm dish were plated on Laminin coated tissue culture dishes in Neuroll-G418 medium that consisted of a base medium of a 1:1 mixture of D-MEM/F12 supplemented with N2 supplements and NeuroBasal Medium supplemented with B27 supplement and 0.1 mM L-Glutamine (all from Invitrogen). The base medium was then supplemented with 10 ng/ml bFGF (Invitrogen), 1 μg/ml mNoggin, 500 ng/ml SHH—N, 100 ng/ml FGF-8b (R&D Systems), 1 μg/ml Laminin and 200 μg/ml G418 (Invitrogen) for selection of neuronal precursors expressing Sox-1. The plates were put in an incubator that contained 2% Oxygen and were maintained in these conditions. During the 6-day selection period, the Neuroll media was changed daily. On day 6, the surviving neuronal precursor foci were dissociated with 0.05% Trypsin EDTA and the cells were plated at a density of 1.5×10^6 cells/100 mm Laminin coated dish in Neuroll-G418 medium. The cells were dissociated every other day for expansion, and prepared for Cryopreservation at passage 3 or 4. The crypreservation medium contained 50% KSR, 10% Dimethyl Sulfoxide (DMSO) (Sigma) and 40% Neurol-G418I medium. Neuronal precursors were crypreserved at a concentration of 4×10^6 cells/ml and 1 ml/cryovial in a controlled rate freezer overnight then transferred to an ultra-low freezer or liquid nitrogen for long-term storage.
Neuronal Differentiation: Cryopreserved ES cell-derived neuronal precursors were thawed by the rapid thaw method in a 37-degree water-bath. The cells were transferred from the cryovial to a 100 mm Laminin coated tissue culture dish that already contained Neuroll-G418 that had been equilibrated in a 2% Oxygen incubator. The media was changed with fresh Neuroll-G418 the next day. The cells were dissociated every other day as described above for expansion to generate enough cells to plate for the screen. For the screen, the cells were plated into 384-well poly-d-lysine coated tissue culture dishes (BD Biosciences) by the automated SelecT at a cell density of 6K cells/well in differentiation medium Neurolll that contained a 4:1 ratio of the NeuroBasalMedium/B27:D-MEM/F12/N2 supplemented with 1 μM cAMP (Sigma), 200 μM Ascorbic Acid (Sigma), 1 μg/ml Laminin (Invitrogen) and 10 ng/ml BDNF (R&D Systems). The plates were put in an incubator with 2% Oxygen and allowed to complete the differentiation process for 7 days. The cells could then be used over a 5-day period for the high throughput screen.
On the day of the assay, the FLIPR assay may be performed using the following methods: […]

| SMILES | EC50 [µM] |
| --- | --- |
| CC(C)S(=O)(=O)N[C@H]1CCOC[C@H]1c1ccc(-c2ccc(C#N)s2)cc1 [Example 1, N-{(3S,4S)-3-[4-(5-cyano-2-thienyl)phenyl]tetrahydro-2H-pyran-4-yl}propane-2-sulfonamide] | 11 |
| CC(C)S(=O)(=O)N[C@H]1CCOC[C@@H]1c1ccc(-c2ccccc2)cc1 [Example 2, N-[(3R,4S)-3-biphenyl-4-yltetrahydro-2H-pyran-4-yl]propane-2-sulfonamide] | 0.365 |
| CC(C)S(=O)(=O)N[C@H]1COCC[C@@]1(O)c1ccc(-c2ccccc2)cc1 [Example 3, N-[(3S,4R)-4-biphenyl-4-yl-4-hydroxytetrahydro-2H-pyran-3-yl]propane-2-sulfonamide] | 4.3 |
| CC(C)S(=O)(=O)N[C@@H]1COCC[C@]1(O)c1ccc(-c2ccccc2)cc1 [Example 4, N-[(3R,4S)-4-biphenyl-4-yl-4-hydroxytetrahydro-2H-pyran-3-yl]propane-2-sulfonamide] | > 31.6 |
| CC(C)S(=O)(=O)N[C@H]1COCC[C@]1(O)c1ccc(-c2ccccc2)cc1 [Example 5, N-[(3S,4S)-4-biphenyl-4-yl-4-hydroxytetrahydro-2H-pyran-3-yl]propane-2-sulfonamide] | 7.66 |
| CC(C)S(=O)(=O)N[C@@H]1COCC[C@@]1(O)c1ccc(-c2ccccc2)cc1 [Example 6, N-[(3R,4R)-4-biphenyl-4-yl-4-hydroxytetrahydro-2H-pyran-3-yl]propane-2-sulfonamide] | > 31.6 |
| CC(C)S(=O)(=O)N[C@H]1CCCO[C@@H]1c1ccc(-c2ccccc2)cc1 [Example 9, N-[(2R,3S)-2-biphenyl-4-yltetrahydro-2H-pyran-3-yl]propane-2-sulfonamide] | 4.45 |
| CCOc1ccccc1-c1ccc([C@@H]2NC(=O)CC[C@H]2NS(=O)(=O)C(C)C)cc1 [Example 10, N-[(2S,3R)-2-(2′-ethoxybiphenyl-4-yl)-6-oxopiperidin-3-yl]propane-2-sulfonamide] | > 7.52 |
| CC(C)S(=O)(=O)N[C@H]1CCC(=O)N[C@@H]1c1ccc(-c2ccccc2)cc1 [Example 11, N-[(2R,3S)-2-biphenyl-4-yl-6-oxopiperidin-3-yl]propane-2-sulfonamide] | > 31.6 |
| CC(C)S(=O)(=O)N[C@@H]1CCC(=O)N[C@H]1c1ccc(-c2ccccc2)cc1 [Example 12, N-[(2S,3R)-2-biphenyl-4-yl-6-oxopiperidin-3-yl]propane-2-sulfonamide] | 12.2 |
| CC(C)S(=O)(=O)N[C@@H]1COCC[C@@H]1c1ccc(-c2ccccc2)cc1 [Example 13, N-[(3S,4R)-4-biphenyl-4-yltetrahydro-2H-pyran-3-yl]propane-2-sulfonamide] | > 31.6 |
| CC(C)S(=O)(=O)N[C@@H]1COCC[C@H]1c1ccc(-c2ccccc2)cc1 [Example 15, N-[(3S,4S)-4-biphenyl-4-yltetrahydro-2H-pyran-3-yl]propane-2-sulfonamide] | > 31.6 |
| CC(C)S(=O)(=O)N[C@H]1COCC[C@@H]1c1ccc(-c2ccccc2)cc1 [Example 16, N-[(3R,4R)-4-biphenyl-4-yltetrahydro-2H-pyran-3-yl]propane-2-sulfonamide] | 1.84 |
| CC(C)S(=O)(=O)N[C@@H]1COCC[C@H]1c1ccc(-c2ccccc2C#N)cc1 [Example 17, N-[(3S,4S)-4-(2′-cyanobiphenyl-4-yl)tetrahydro-2H-pyran-3-yl]propane-2-sulfonamide] | > 31.6 |
| CC(C)S(=O)(=O)N[C@H]1COCC[C@@H]1c1ccc(-c2ccccc2C#N)cc1 [Example 18, N-[(3R,4R)-4-(2′-cyanobiphenyl-4-yl)tetrahydro-2H-pyran-3-yl]propane-2-sulfonamide] | 0.415 |
| CC(C)S(=O)(=O)N[C@@H]1COCC[C@H]1c1ccc(-c2ccc(C#N)s2)cc1 [Example 19, N-{(3S,4S)-4-[4-(5-cyano-2-thienyl)phenyl]tetrahydro-2H-pyran-3-yl}propane-2-sulfonamide] | > 31.6 |
| CC(C)S(=O)(=O)N[C@H]1COCC[C@@H]1c1ccc(-c2ccc(C#N)s2)cc1 [Example 20, N-{(3R,4R)-4-[4-(5-cyano-2-thienyl)phenyl]tetrahydro-2H-pyran-3-yl}propane-2-sulfonamide] | 9.79 |
| CC(C)S(=O)(=O)N[C@@H]1CCOC[C@@H]1c1ccc(-c2ccc(C#N)s2)cc1 [Example 21, N-{(3R,4R)-3-[4-(5-cyano-2-thienyl)phenyl]tetrahydro-2H-pyran-4-yl}propane-2-sulfonamide] | > 31.6 |
| CC(C)S(=O)(=O)N[C@H]1CCOC[C@H]1c1ccc(-c2ccc(F)cc2C#N)cc1 [Example 24, N-[(3S,4S)-3-(2′-cyano-4′-fluorobiphenyl-4-yl)tetrahydro-2H-pyran-4-yl]propane-2-sulfonamide] | 0.378 |
| CC(C)S(=O)(=O)N[C@H]1CCOC[C@H]1c1ccc(-c2ccc(C#N)cc2)cc1 [Example 29, N-[(3S,4S)-3-(4′-cyanobiphenyl-4-yl)tetrahydro-2H-pyran-4-yl]propane-2-sulfonamide] | 4.04 |
| CC(C)S(=O)(=O)N[C@@H]1CCOC[C@@H]1c1ccc(-c2ccc(C#N)cc2)cc1 [Example 30, N-[(3R,4R)-3-(4′-cyanobiphenyl-4-yl)tetrahydro-2H-pyran-4-yl]propane-2-sulfonamide] | > 31.6 |

Other lines, results leading:

| EC50 [µM] | SMILES |
| --- | --- |
| > 31.6 | CCOc1ccccc1-c1ccc([C@@H]2CCOC[C@H]2NS(=O)(=O)C(C)C)cc1 [Example 7, N-[(3S,4S)-4-(2′-ethoxybiphenyl-4-yl)tetrahydro-2H-pyran-3-yl]propane-2-sulfonamide] |
| 0.403 | CCOc1ccccc1-c1ccc([C@H]2CCOC[C@@H]2NS(=O)(=O)C(C)C)cc1 [Example 8, N-[(3R,4R)-4-(2′-ethoxybiphenyl-4-yl)tetrahydro-2H-pyran-3-yl]propane-2-sulfonamide] |
| 0.429 | CC(C)S(=O)(=O)N[C@H]1CCOC[C@H]1c1ccc(-c2ccccc2C#N)cc1 [Example 22, N-[(3S,4S)-3-(2′-cyanobiphenyl-4-yl)tetrahydro-2H-pyran-4-yl]propane-2-sulfonamide] |
| 10.3 | CC(C)S(=O)(=O)N[C@@H]1CCOC[C@@H]1c1ccc(-c2ccccc2C#N)cc1 [Example 23, N-[(3R,4R)-3-(2′-cyanobiphenyl-4-yl)tetrahydro-2H-pyran-4-yl]propane-2-sulfonamide] |
| 0.684 | CC(C)S(=O)(=O)N[C@H]1CCOC[C@H]1c1ccc(-c2ccccc2)cc1 [Example 25, N-[(3S,4S)-3-biphenyl-4-yltetrahydro-2H-pyran-4-yl]propane-2-sulfonamide] |
| > 31.6 | CC(C)S(=O)(=O)N[C@@H]1CCOC[C@@H]1c1ccc(-c2ccccc2)cc1 [Example 26, N-[(3R,4R)-3-biphenyl-4-yltetrahydro-2H-pyran-4-yl]propane-2-sulfonamide] |
| 0.32 | CCOc1ccccc1-c1ccc([C@@H]2COCC[C@@H]2NS(=O)(=O)C(C)C)cc1 [Example 27, N-[(3S,4S)-3-(2′-ethoxybiphenyl-4-yl)tetrahydro-2H-pyran-4-yl]propane-2-sulfonamide] |
| > 31.6 | CCOc1ccccc1-c1ccc([C@H]2COCC[C@H]2NS(=O)(=O)C(C)C)cc1 [Example 28, N-[(3R,4R)-3-(2′-ethoxybiphenyl-4-yl)tetrahydro-2H-pyran-4-yl]propane-2-sulfonamide] |
| 0.318 | CC(C)S(=O)(=O)N[C@H]1CCOC[C@@H]1c1ccc(-c2ccccc2C#N)cc1 [Example 31, N-[(3R,4S)-3-(2′-cyanobiphenyl-4-yl)tetrahydro-2H-pyran-4-yl]propane-2-sulfonamide] |
